Experimental data taken from patent US11932598B2, “Polyacyloxymethyl-4,4′-acyloxybiphenyl compound” (HONSHU CHEMICAL INDUSTRY CO., LTD., priority 2018, dated 2024).

How the values were obtained:
[1] = Solvent solubility evaluation test (amount dissolved in 100 g of cyclohexanone); format: physicochemical
Experimental: <Solvent Solubility Evaluation Test>
The 4,4′-Diacetoxy-3,3′,5,5′-tetra(acetoxymethyl)biphenyl obtained in Example 1 (hereinafter referred to as “Present Compound A”) and 4,4′-di(acetoxy)biphenyl (hereinafter referred to as “Comparative Compound a”) were measured for the amounts dissolved in 100 g of cyclohexanone at 40° C. and 60° C. (hereinunder referred to as “solubility (g)”).

[2] = amount dissolved in 100 g of cyclohexanone at 40° C.
[3] = amount dissolved in 100 g of cyclohexanone at 60° C.

With `CC(=O)Oc1ccc(-c2ccc(OC(C)=O)cc2)cc1` [Comparative Compound a, 4,4′-di(acetoxy)biphenyl, reference compound] the “Solubility” value [1, 2] was 9.0 g and the “Solubility” value [1, 3] was 12.8 g.
For `CC(=O)OCc1cc(-c2cc(COC(C)=O)c(OC(C)=O)c(COC(C)=O)c2)cc(COC(C)=O)c1OC(C)=O` [Present Compound A, 4,4′-Diacetoxy-3,3′,5,5′-tetra(acetoxymethyl)biphenyl], the melting point was 116.2 °C, the “Solubility” value [1, 2] was 39.4 g and the “Solubility” value [1, 3] was 89.8 g.
